From patent US10738031B2, “N-[(heteroaryloxy)propanyl]heteroaryl carboxamides as antagonists of orexin subtype 1 receptor activity” (Boehringer Ingelheim International GmbH, priority 2016, dated 2020)

Experiments:
human orexin 2 receptor = target: T1, human orexin 2 receptor (Homo sapiens, UniProt O43614); assay: Assay B: OX2R IP1 (in vitro OX2R potency); assay type: cell-based; details: Table 3; 0.5 nM Orexin A concentration
T1 construct: stably expressing the full-length human orexin 2 receptor; expressed in transfected cells; host or cells: CHO-K1 (CHO-K1/hOX2), co-expressing aequorin
T1 sequence (O43614 1-444): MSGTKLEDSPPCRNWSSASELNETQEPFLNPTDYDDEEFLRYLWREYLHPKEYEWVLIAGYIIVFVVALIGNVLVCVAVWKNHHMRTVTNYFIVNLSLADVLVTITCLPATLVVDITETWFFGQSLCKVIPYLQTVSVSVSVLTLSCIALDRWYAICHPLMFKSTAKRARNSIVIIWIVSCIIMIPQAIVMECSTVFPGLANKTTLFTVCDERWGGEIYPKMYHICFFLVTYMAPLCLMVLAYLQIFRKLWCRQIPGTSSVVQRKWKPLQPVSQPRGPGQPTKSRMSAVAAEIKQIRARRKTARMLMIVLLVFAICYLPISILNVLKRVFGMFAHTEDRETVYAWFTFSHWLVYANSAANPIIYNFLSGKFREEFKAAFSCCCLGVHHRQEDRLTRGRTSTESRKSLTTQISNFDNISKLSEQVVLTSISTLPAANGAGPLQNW
Text: Activation of the orexin receptors expressed in cell lines results in an increase in intracellular IP3 concentration. IP1, a downstream metabolite of IP3, accumulates in cells following receptor activation and is stable in the presence of LiCl. Using Homogeneous Time-Resolved Fluorescence technology with Lumi4-Tb cryptate (commercially available from Cisbio Bioassay.) and a suitable fluorescence plate reader. This functional response is detectable and quantifiable as described in Trinquet et al. Anal. […] Curr. Chem. Genomics 2009, 3, 22-32. This technique is used to characterize pharmacological modification of the orexin receptors. B. In Vitro Testing of OX2R Potency: OX2R IP1 IP1 measurements are performed in CHO-K1 cells stably expressing the full-length human orexin 2 receptor and the aequorin photoprotein. Cells are cultivated in Ham's nutrient mixture F12 medium with 10% fetal calf serum, in a 37° C., 95% humidity and 5% CO2 incubator. The CHO-K1/hOX2 cell mass is expanded to larger cell numbers. The cells are obtained as frozen cells in cryo-vials and stored until use at -150° C. The viability of the cells after thawing is >90%. In preparation for the assay, 24 hours before the assay, the cells are thawed at 37° C. and immediately diluted with cell culture medium. After centrifugation, the cell pellet is resuspended in medium and then distributed into the assay plates with a density of 5000 cells/25 μL per well. The plates are incubated for one hour at room temperature to reduce edge effects before they are incubated for 24 hours at 37° C./5% CO2. […] On the day of the assay, cells in the plate are washed twice with 60 μL assay buffer (20 μL buffer remained in the wells after washing), followed by adding 5 μL per well of compounds diluted in assay buffer. […] The assay plate is incubated for 60 minutes at 37° C. Then 5 μL per well of Anti-IP1-Cryptate Tb solution and 5 μL per well of IP1-d2 dilution are added to all well of the plate and the plate is incubated for a further 60 minutes light protected at room temperature. […] The ratio between the emission at 665 nm and 615 is calculated by the reader. […] AssayExplorer (Accelrys). In order to establish an agonist concentration independent parameter, Kb values are calculated using the following equation: […] Sci. 1993, 14(4), 110-112).

human Orexin 1 receptor = target: T2, human Orexin 1 receptor (Homo sapiens, UniProt O43613); assay: Assay A: OX1R IP1 (in vitro OX1R potency); assay type: cell-based; details: for Kb: Table 3
T2 construct: stably expressing the full-length human Orexin 1 receptor; expressed in transfected cells; host or cells: CHO-K1 (CHO-K1/hOX1), co-expressing aequorin
T2 sequence (O43613 1-425): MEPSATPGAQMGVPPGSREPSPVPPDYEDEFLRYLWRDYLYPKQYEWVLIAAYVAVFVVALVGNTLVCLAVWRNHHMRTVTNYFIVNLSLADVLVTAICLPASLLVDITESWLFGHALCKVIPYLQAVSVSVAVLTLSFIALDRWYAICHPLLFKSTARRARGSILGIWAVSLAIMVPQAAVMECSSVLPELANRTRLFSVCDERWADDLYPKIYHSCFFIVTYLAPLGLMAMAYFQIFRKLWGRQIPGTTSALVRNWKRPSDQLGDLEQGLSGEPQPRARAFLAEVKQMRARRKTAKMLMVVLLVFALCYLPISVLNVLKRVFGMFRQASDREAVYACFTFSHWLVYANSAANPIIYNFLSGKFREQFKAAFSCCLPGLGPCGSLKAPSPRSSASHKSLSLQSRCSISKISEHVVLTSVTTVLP

[1] = Assay C: Human MST t1/2 (stability in human liver microsomes); assay type: in vitro ADME; details: human liver microsomes

CCN(C(=O)c1cc(C)cnc1-c1ccn(C)n1)[C@@H](C)COc1ccc(C(F)(F)F)cn1 [Example 27]
Kb (human orexin 2 receptor): 134 nM | Kb (human Orexin 1 receptor; Orexin A concentration 0.5 nM): 0.87 nM | Kb (human Orexin 1 receptor; Orexin A concentration 50 nM): 0.69 nM | half-life [1]: 31 min

CCN(C(=O)c1ncccc1-n1nccn1)[C@@H](C)COc1ncc(C(F)(F)F)cc1F [Example 57]
Kb (human orexin 2 receptor): 419 nM | OX2R Kb/OX1R Kb (human Orexin 1 receptor): 233 | Kb (human Orexin 1 receptor; Orexin A concentration 0.5 nM): 1.8 nM | half-life [1]: 56 min

CCN(C(=O)c1ncccc1-n1nccn1)[C@@H](C)COc1ccc(Cl)cn1 [Example 71]
Kb (human orexin 2 receptor): 339 nM | OX2R Kb/OX1R Kb (human Orexin 1 receptor): 113 | Kb (human Orexin 1 receptor; Orexin A concentration 0.5 nM): 3 nM | half-life [1]: 63 min

CC[C@@H](CNc1ccc(C(F)(F)F)cn1)N(CC)C(=O)c1nc(C)ccc1-n1nccn1 [Ex 71 in WO2016/ 034882, reference compound]
Kb (human orexin 2 receptor): 27 nM | half-life [1]: 4.5 min

CCN(C(=O)c1cnccc1-n1nccn1)[C@@H](C)COc1ncc(C(F)(F)F)cc1F [Example 42]
Kb (human orexin 2 receptor): 483 nM | OX2R Kb/OX1R Kb (human Orexin 1 receptor): 210 | Kb (human Orexin 1 receptor; Orexin A concentration 0.5 nM): 2.3 nM | half-life [1]: 13 min

CCN(C(=O)c1cc(Cl)cnc1-n1nccn1)[C@@H](C)COc1ccc(C(F)(F)F)cn1 [Example 72]
Kb (human orexin 2 receptor): 250 nM | Kb (human Orexin 1 receptor; Orexin A concentration 0.5 nM): 0.37 nM | Kb (human Orexin 1 receptor; Orexin A concentration 50 nM): 0.24 nM | half-life [1]: > 130 min

CCN(C(=O)c1nc(C)ccc1-n1nccn1)[C@@H](C)COc1ncc(C(F)(F)F)cn1 [Example 23]
Kb (human orexin 2 receptor): 2900 nM | OX2R Kb/OX1R Kb (human Orexin 1 receptor): 439 | Kb (human Orexin 1 receptor; Orexin A concentration 0.5 nM): 6.6 nM | half-life [1]: 110 min

CCN(C(=O)c1nc(C)ccc1-n1nccn1)[C@@H](C)COc1ccc(Cl)cn1 [Example 8]
Kb (human orexin 2 receptor): 71 nM | OX2R Kb/OX1R Kb (human Orexin 1 receptor): 158 | Kb (human Orexin 1 receptor; Orexin A concentration 50 nM): 0.45 nM | half-life [1]: 25 min

CCN(C(=O)c1c(F)cncc1-n1cccn1)[C@@H](C)COc1ccc(C(F)(F)F)cn1 [Example 24]
Kb (human orexin 2 receptor): 1070 nM | OX2R Kb/OX1R Kb (human Orexin 1 receptor): 167 | Kb (human Orexin 1 receptor; Orexin A concentration 0.5 nM): 6.4 nM | half-life [1]: 29 min

CCN(C(=O)c1ncc(F)cc1-c1ccn(C)n1)[C@@H](C)COc1ccc(C(F)(F)F)cn1 [Example 37]
Kb (human orexin 2 receptor): 802 nM | OX2R Kb/OX1R Kb (human Orexin 1 receptor): 243 | Kb (human Orexin 1 receptor; Orexin A concentration 0.5 nM): 3.3 nM | half-life [1]: 24 min

CCN(C(=O)c1cc(OC)cnc1-n1nccn1)[C@@H](C)COc1ccc(Cl)cn1 [Example 43]
Kb (human orexin 2 receptor): 325 nM | OX2R Kb/OX1R Kb (human Orexin 1 receptor): 171 | Kb (human Orexin 1 receptor; Orexin A concentration 0.5 nM): 1.9 nM | half-life [1]: 110 min

CCN(C(=O)c1nc(C)ccc1-n1nccn1)[C@@H](C)COc1ccc(C(F)(F)F)cn1 [Example 5]
Kb (human orexin 2 receptor): 59 nM | OX2R Kb/OX1R Kb (human Orexin 1 receptor): 393 | Kb (human Orexin 1 receptor; Orexin A concentration 50 nM): 0.15 nM | half-life [1]: 25 min

CCN(C(=O)c1cc(F)cnc1-n1nccn1)[C@@H](C)COc1ccc(Cl)cn1 [Example 22]
Kb (human orexin 2 receptor): 1010 nM | OX2R Kb/OX1R Kb (human Orexin 1 receptor): 215 | Kb (human Orexin 1 receptor; Orexin A concentration 0.5 nM): 4.7 nM | half-life [1]: 82 min

CCN(C(=O)c1cccnc1-n1nccn1)[C@@H](C)COc1ccc(Cl)cn1 [Example 51]
Kb (human orexin 2 receptor): 1140 nM | OX2R Kb/OX1R Kb (human Orexin 1 receptor): 138 | Kb (human Orexin 1 receptor; Orexin A concentration 0.5 nM): 8.3 nM | half-life [1]: > 130 min

CCN(C(=O)c1cc(F)cnc1-c1ncccn1)[C@@H](C)COc1ccc(C(F)(F)F)cn1 [Example 70]
Kb (human orexin 2 receptor): 1040 nM | OX2R Kb/OX1R Kb (human Orexin 1 receptor): 691 | Kb (human Orexin 1 receptor; Orexin A concentration 0.5 nM): 1.5 nM | half-life [1]: > 130 min

CCN(C(=O)c1cnccc1-n1nccn1)[C@@H](C)COc1ccc(Cl)cn1 [Example 48]
Kb (human orexin 2 receptor): 381 nM | OX2R Kb/OX1R Kb (human Orexin 1 receptor): 147 | Kb (human Orexin 1 receptor; Orexin A concentration 0.5 nM): 2.6 nM | half-life [1]: 33 min

CCN(C(=O)c1cnc(C)nc1-c1ccccc1)[C@@H](C)COc1ncc(C(F)(F)F)cn1 [Example 11]
Kb (human orexin 2 receptor): 1290 nM | OX2R Kb/OX1R Kb (human Orexin 1 receptor): 860 | Kb (human Orexin 1 receptor; Orexin A concentration 0.5 nM): 1.5 nM | half-life [1]: 88 min

CCN(C(=O)c1cnc(C)nc1-c1ccccc1)[C@@H](C)COc1cnc(C(F)(F)F)cn1 [Example 9]
Kb (human orexin 2 receptor): 939 nM | OX2R Kb/OX1R Kb (human Orexin 1 receptor): 522 | Kb (human Orexin 1 receptor; Orexin A concentration 0.5 nM): 1.8 nM | half-life [1]: > 130 min

CCN(C(=O)c1c(F)ccnc1-c1ccn(C)n1)[C@@H](C)COc1ccc(C(F)(F)F)cn1 [Example 58]
Kb (human orexin 2 receptor): 327 nM | OX2R Kb/OX1R Kb (human Orexin 1 receptor): 93 | Kb (human Orexin 1 receptor; Orexin A concentration 0.5 nM): 3.5 nM | half-life [1]: 41 min
